Test results published in patent US9120820B2, “Fluorescent molecular probes for use in assays that measure test compound competitive binding with SAM-utilizing proteins” (CAYMAN CHEMICAL COMPANY, INCORPORATED, priority 2011, dated 2015).
pIC50, pKi: −log10 of the molar value.

Experiments:
SET7/9 [1] = biological target: T1, SET7/9 (Homo sapiens, UniProt Q8WTS6); assay: Sinefungin Probe 1A competition FP assay with SET7/9; format: binding; conditions: for pIC50: read-out: IC50 for displacement of Sinefungin Probe 1A
T1 construct: purchased Cayman 10320
T1 sequence (Q8WTS6 1-366): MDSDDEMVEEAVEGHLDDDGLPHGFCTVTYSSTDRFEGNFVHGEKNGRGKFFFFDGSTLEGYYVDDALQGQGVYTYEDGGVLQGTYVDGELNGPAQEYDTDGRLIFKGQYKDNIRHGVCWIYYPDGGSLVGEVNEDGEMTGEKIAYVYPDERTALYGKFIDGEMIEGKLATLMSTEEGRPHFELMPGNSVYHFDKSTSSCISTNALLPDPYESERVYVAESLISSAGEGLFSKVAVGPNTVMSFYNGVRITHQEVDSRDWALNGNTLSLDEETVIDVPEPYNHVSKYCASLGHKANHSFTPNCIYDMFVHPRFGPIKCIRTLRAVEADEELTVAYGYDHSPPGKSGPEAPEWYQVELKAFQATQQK
Description: Methods: Carboxymethyl cellulose-purified SAM, SAH (Cayman Catalog #700145), and sinefungin were diluted in a semi-Log manner in FP buffer (Cayman Catalog #600028). Five microliters of these dilutions were added to the wells of a low-volume, black, 384-well plate (Nunc #264705). […] The assay was allowed to equilibrate at room temperature for 30 minutes in the dark. Fluorescence polarization was measured as above. The experiment was performed two independent times, each in duplicate.

SET7/9 [2] = biological target: T1, SET7/9; assay: SET7/9 SAM-Screener high-throughput FP assay, Sinefungin Probe 1A displacement; format: binding; conditions: SET7/9; sinefungin 50 μM; SAM
Description: Methods: A collection of 14,400 compounds from the Maybridge HitFinder collection of compounds was assayed for the displacement of Sinefungin Probe 1A from SET7/9 in a high-throughput manner using the SET7/9 SAM-Screener FP assay Cayman Catalog Item #600490). Thirty microliters of assay buffer (50 mM Tris pH 8.0, 50 mM KCl, 5 mM CHAPS, 2 mM DTT) was added to every well of a black 384-well polystyrene microtiter plate (Thermo-Fisher 364576). To every well, excluding control wells, was added one microliter of a DMSO solution containing a test compound. Control wells received either 1 μl DMSO or 1 μl of a sinefungin solution. The final concentration of sinefungin control or test compounds in the assay was 50 μM or 10 μM, respectively. To every well of the plate was added 10 μl of a SET7/9 solution to give a final assay concentration of 30 nM. After a 15-minute incubation at ambient temperature, 10 μl of Sinefungin Probe 1A solution was added to every well to give a final assay concentration of 10 nM in a total assay volume of 50 μl Samples were analyzed using a Biotek Synergy H4 plate reader in fluorescence polarization mode after a 30-minute incubation at ambient temperature in the dark. Data were analyzed using GeneData (v. 9.01). […]

SET7/9 [3] = biological target: T1, SET7/9; assay: Fluorescence polarization saturation binding of fluorescent probe to SET7/9; conditions: FIG. 11A, FIG. 12
Description: Methods: The experiment was performed once, with two replicate wells for all methyltransferases per condition. The sole exception to this is NSD2 (see details below). The assay was performed in a ½ area, black, 96-well plate (Corning #3686) in a final volume of 30 μL. Methyltransferases (Table 1) were serially diluted two-fold in FP buffer (Cayman Catalog #600028) and 15 μL of a given dilution were added per well to the assay plate. Fifteen microliters of sinefungin probe 1A (10 nM) were added to each well, giving a final sinefungin probe 1A concentration of 5 nM. This concentration of sinefungin probe 1A was chosen because it had at least a 10-fold increase in fluorescence (excitation max 575 nm/emission max 615 nm) over background (buffer). The mixture was incubated in the dark at room temperature for 30 minutes and its fluorescence polarization was read using a BioTek Synergy 4.

SET7/9 [4] = biological target: T1, SET7/9; assay: Sinefungin Probe 1B displacement FP assay with SET7/9 (Epigenetics Screening Library profiling); format: binding; conditions: SET7/9, FIG. 11B
Description: Profiling of a pre-production version of the Cayman Chemical Epigenetics Screening Library (Cayman Catalog Item #11076) against SET7/9 and GLP was performed in a similar manner using Sinefungin Probe 1B. For GLP, the enzyme concentration was raised to 500 nM to produce a robust signal:noise ratio. Data were analyzed in GraphPad Prism (v. 5.04) and/or GeneData (v. 9.01).
An analog of Sinefungin Probe 1A, Sinefungin Probe 1B, wherein the hexyl portion of the linker moiety is replaced with PEG3 and the Cal Fluor® Red 610 fluorophore moiety is replaced with the “Fluor585” (Texas Red)-derived fluorophore moiety, was tested for the ability to bind several methyltransferases, including SET7/9. […] Similar data have been observed for GLP and G9a.

[5] = 30 nM SET7/9, 10 nM Sinefungin Probe 1A, FIG. 3

C[S+](CC[C@H](N)C(=O)O)C[C@H]1O[C@@H](n2cnc3c(N)ncnc32)[C@H](O)[C@@H]1O (stereo partly shown) [SAM, S-Adenosylmethionine, reference compound]
pIC50 (SET7/9 [1]; [5]): 6.89 | inhibition of probe binding (controls) (SET7/9 [2]): fully inhibits probe binding

Nc1ncnc2c1ncn2[C@@H]1O[C@H](C[C@@H](N)CC[C@H](N)C(=O)O)[C@@H](OCc2cnnn2CCCCCCNC(=O)OC2CCN(C(=O)c3ccccc3C3=c4cc5c6c(c4Oc4c3cc3c7c4CCCN7CCC3)CCC[N+]=6CCC5)CC2)[C@H]1O [Sinefungin Probe 1B]
affinity for SET7/9 compared with the other sinefungin probes (SET7/9 [3]): essentially identical affinities

Nc1ncnc2c1ncn2[C@@H]1O[C@H](CSCC[C@H](N)C(=O)O)[C@@H](O)[C@H]1O [SAH, S-adenosylhomocysteine]
competition with probe binding (SET7/9 [1]; [5]): did not compete with probe binding at concentrations below 1 μM

Nc1ncnc2c1ncn2[C@@H]1O[C@H](C[C@@H](N)CC[C@H](N)C(=O)O)[C@@H](O)[C@H]1O [sinefungin, Sinefungin]
pIC50 (SET7/9 [1]; [5]): 6.66 | pKi (SET7/9 [1]; SET7/9, read-out: Ki for displacement of Sinefungin Probe 1A): 6.77 | pKi (SET7/9 [4]): 6.92
